Values quoted from earlier work, collected in PMC9762682, “Tocotrienols: Exciting Biological and Pharmacological Properties of Tocotrienols and Naturally Occurring Compounds, Part II” (Annals of clinical case reports, 2022).
Counter-ions that a name gives are not always drawn.

Key:
[1] = test system: Melanoma cells; parameters: method as in PMID 29606130
[2] = test system: Hela cells; parameters: method as in PMID 29606130; value at effective dose: unit not given here; settings: for effective dose / percentage of control at effective dose / value at effective dose: 48 h;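 as to IC50: anti-proliferation of cancer cells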
[3] = test system: Prostate cancer cells; parameters: method as in PMID 29606130; value at effective dose: scale not given here; settings: for effective dose / percentage of control at effective dose / value at effective dose: 48 h;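 as to IC50: anti-proliferation of cancer cells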
[4] = test system: Breast cancer cells; parameters: method as in PMID 29606130; value at effective dose: unit not given here;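 as to IC50: anti-proliferation of cancer cells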
[5] = test system: B-Lymphocyte cells; parameters: method as in PMID 29606130; value at effective dose: unit not given here;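 as to IC50: anti-proliferation of cancer cells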
[6] = test system: Lung cancer cells; parameters: method as in PMID 29606130; value at effective dose: unit not given here
[7] = test system: Pancreas cancer cells; parameters: method as in PMID 29606130; value at effective dose: unit not given here; settings: 48 h
[8] = test system: T-cells (Jurkat); parameters: method as in PMID 29606130; value at effective dose: unit not given here
[9] = test system: Liver cancer cells; parameters: method as in PMID 29606130; value at effective dose: unit not given here; settings: for effective dose / percentage of control at effective dose / value at effective dose: 48 h

| Compound | effective dose [1] | percentage of control at effective dose [1] | effective dose [2] | percentage of control at effective dose [2] | value at effective dose [2] | effective dose [3] | percentage of control at effective dose [3] | value at effective dose [3] | effective dose [4] | percentage of control at effective dose [4] | value at effective dose [4] | effective dose [5] | percentage of control at effective dose [5] | value at effective dose [5] | effective dose [6] | percentage of control at effective dose [6] | value at effective dose [6] | effective dose [7] | percentage of control at effective dose [7] | value at effective dose [7] | also measured |
| --- | --- | --- | --- | --- | --- | --- | --- | --- | --- | --- | --- | --- | --- | --- | --- | --- | --- | --- | --- | --- | --- |
| N=C(N)NC(=O)c1nc(Cl)c(N)nc1N [Amiloride-HCL] | 40 µM | 90% | 80 µM | 36% | 19.7 ± 1.5 | 80 µM | 70% | 27.0 ± 4.6 | 20 µM | 61% | 14.0 ± 5.3 | 20 µM | 56% | 5.0 ± 1.0 | 40 µM | 86% | 23.3 ± 2.5 | 80 µM | 69% | 30.7 ± 1.2 | IC50 [2]: 10 µM; percentage of control at IC50 dose [2]: 51%; IC50 [4]: 40 µM; percentage of control at IC50 dose [4]: 52%; IC50 [5]: 40 µM; percentage of control at IC50 dose [5]: 48%; effective dose [8]: 20 µM; percentage of control at effective dose [8]: 38%; value at effective dose [8]: 132.7 ± 2.1; percentage of control at IC50 dose [9]: 56%; effective dose [9]: 40 µM; percentage of control at effective dose [9]: 65%; value at effective dose [9]: 36.7 ± 2.5 |
| CC1(C)S[C@@H]2[C@H](NC(=O)[C@H](N)c3ccccc3)C(=O)N2[C@H]1C(=O)O [Ampicillin] | 20 µM | 70% | 80 µM | 88% | 47.7 ± 5.5 | 20 µM | 41% | 15.0 ± 1.0 | 40 µM | 74% | 16.7 ± 6.1 | 10 µM | 66% | 44.7 ± 5.1 | 80 µM | 85% | 21.3 ± 1.5 | 80 µM | 74% | 35.3 ± 5.0 | IC50 [3]: 5 µM; percentage of control at IC50 dose [3]: 50%; effective dose [8]: 20 µM; percentage of control at effective dose [8]: 94%; value at effective dose [8]: 450.3 ± 15.6; effective dose [9]: 40 µM; percentage of control at effective dose [9]: 88%; value at effective dose [9]: 70.3 ± 4.2 |
| O=C1O[C@H]([C@@H](O)CO)C(O)=C1O [Ascorbic Acid] | 80 µM | 81% | 80 µM | 64% | 21.0 ± 0.1 | 80 µM | 81% | 29.3 ± 2.1 | 40 µM | 73% | 15.0 ± 1.7 | 20 µM | 62% | 17.3 ± 2.5 | 20 µM | 46% | 15.0 ± 4.4 | 80 µM | 71% | 42.3 ± 2.5 | IC50 [6]: 10 µM; percentage of control at IC50 dose [6]: 49%; effective dose [8]: 40 µM; percentage of control at effective dose [8]: 89%; value at effective dose [8]: 451.3 ± 32.4; effective dose [9]: 80 µM; percentage of control at effective dose [9]: 90%; value at effective dose [9]: 74.3 ± 2.5 |
